Experimental data reported in patent publication US6613352B2, “Low-rigidity liposomal formulation” (Universite de Montreal, priority 1999, dated 2003).

System: Xanthomonas maltophilia
Experiment: In vitro bactericidal activity, viable bacterial counts in proteose peptone
Type: cell-based
Conditions: free tobramycin 3,12 μg/ml, entrapped tobramycin 3,08 μg/ml, MIC >5 μg/ml
Protocol: To culture tubes containing proteose peptone (29 ml) a minimal number of 10^8 CFU of bacteria in logarithmic phase (1 ml) and of one of the following preparations (100 μl) were added at time zero: free tobramycin, control liposomes or PBS. Experiments were done in triplicate. At times 1, 3, 6, and 16 hours following the addition of antibiotic or controls, 2 ml of samples were collected and serial 10-fold dilutions were made and spread in triplicate on proteose peptone agar plates for gram negative strains and on […] for S. aureus. CFU were counted after 24-hour and 48-hourS incubations at 37° C. under 5% CO2. Counts were expressed in log CFU per ml of culture media.

SMILES: NC[C@H]1O[C@H](O[C@H]2[C@H](O)[C@@H](O[C@H]3O[C@H](CO)[C@@H](O)[C@H](N)[C@H]3O)[C@H](N)C[C@@H]2N)[C@H](N)C[C@@H]1O [Free tobramycin, tobramycin]
- Viable bacterial counts (0 h): 3.7 × 10^10 cfu
- Viable bacterial counts (1 h): 3.00 × 10^12 cfu
- Viable bacterial counts (3 h): 8.20 × 10^14 cfu
- Viable bacterial counts (6 h): 7.80 × 10^16 cfu
